The source of these data is patent US20220289794A1, “SYNTHETIC ANTIMICROBIAL PEPTIDES” (priority 2019, published 2022).

The test system of test [1] is P. aeruginosa (ATCC 10145). Nature of the test: Broad-spectrum activity against Gram-Negative bacteria (MIC). The settings on record: Table 16, Gram-negative panel. Type of test: cell-based.
In test [2] the test system is Streptococcus pneumoniae ATCC 49619. Particulars: S. pneumoniae ATCC 49619.
For test [3], the system named is A. baumannii (ATCC BAA-1605). Nature of the test: Broad-spectrum activity against Gram-Negative bacteria (MIC). The format is cell-based. The settings on record: Table 16, Gram-negative panel.
Another test has as its system E. coli (ATCC BAA-2452). The description is as above. Type of test: cell-based. The settings on record: Table 16, Gram-negative panel.
The subject of test [4] is Klebsiella pneumoniae (ATCC BAA-1705). The settings on record: Table 16, Gram-negative panel.
The next test deals with S. aureus ATCC 29213. The settings on record: S. aureus ATCC 29213.
The test system of test [5] is Enterococcus faecalis ATCC 51575. Particulars: E. faecalis ATCC 51575.
Test [6] relates to Escherichia coli (ATCC 25922). Particulars: E. coli ATCC 25922.
Test [7] has as its system Streptococcus pneumoniae ATCC 51938. Particulars: S. pneumoniae ATCC 51938.
Test [8] relates to Methicillin-resistant Staphylococcus aureus MRSA (ATCC BAA-1556). The settings on record: MRSA ATCC BAA-1556.
For the next test, the system named is B. cereus (ATCC-13061). As to the kind of experiment: Broad-spectrum activity against Gram-Positive bacteria (MIC). Type of test: cell-based. Further details: unit not given here.
The next test has as its system B. subtilis (ATCC-6633). The test is described as above. Type of test: cell-based. Set-up: unit not given here.
Test [9] deals with Klebsiella pneumoniae ATCC 13883. The settings on record: Table 16, Gram-negative panel.
Test [10] has as its system Enterococcus faecium ATCC 700221. Particulars: E. faecium ATCC 700221.
Test [11] has as its system Pseudomonas aeruginosa (ATCC 27883). Particulars: P. aeruginosa ATCC 27883.
Test [12] deals with Enterococcus faecalis ATCC 29212. Particulars: E. faecalis ATCC 29212.
In test [13] the test system is P. aeruginosa (ATCC BAA-1744). As to the kind of experiment: Broad-spectrum activity against Gram-Negative bacteria (MIC). The format is cell-based. Particulars: Table 16, Gram-negative panel.
The subject of test [14] is Enterococcus faecium ATCC 27270. The settings on record: E. faecium ATCC 27270.

“c[Arg-Arg-arg-arg-NaI-trp-NaI] [IFX-139]” gave an MIC P. aeruginosa (ATCC 10145) in test [1] of 50 µg/mL. Besides, in [2], the “Broad-spectrum activity S. pneumoniae (ATCC 49619)” value worked out at 25. In [3], this substance showed an MIC A. baumannii (ATCC BAA-1605) of 12.5 µg/mL. In the test on E. coli (ATCC BAA-2452), this substance came in with an MIC E. coli (ATCC BAA-2452) of 25 µg/mL. This substance displayed an MIC K. pneumonia (ATCC BAA-1705) in [4] of 25 µg/mL. Besides, the “MIC S. aureus ATCC 29213” value against S. aureus ATCC 29213 amounted to 3.1 µg/mL. In addition, the “Broad-spectrum activity E. faecalis (ATCC 51575)” value in test [5] is recorded as 6.2. In [6], the “MIC E. coli ATCC 25922” value amounted to 32 µg/mL. The “Broad-spectrum activity S. pneumoniae (ATCC 51938)” value in [7] stood at 12.5. The “MIC MRSA ATCC BAA-1556” value in test [8] was 3.1 µg/mL. Besides, in the test with B. cereus (ATCC-13061), the “Broad-spectrum activity B. cereus (ATCC-13061)” value came to 3.1. Moreover, the “Broad-spectrum activity B. subtilis (ATCC-6633)” value in the test on B. subtilis (ATCC-6633) is 1.5. Besides, in [9], the MIC K. pneumonia (ATCC 13883) is more than 50 µg/mL. The “Broad-spectrum activity E. faecium (ATCC 700221)” value in test [10] is 6.2. In test [11], the “MIC P. aeruginosa ATCC 27883” value was 32 µg/mL. In test [12], the “Broad-spectrum activity E. faecalis (ATCC 29212)” value is recorded as 6.2. Moreover, the MIC P. aeruginosa (ATCC BAA-1744) in [13] was found to be 50 µg/mL. Also, the “Broad-spectrum activity E. faecium (ATCC 27270)” value in [14] is recorded as 3.1.
Turning to “c[Arg-Arg-Arg-Arg-dip-Trp-dip] [IFX-098]”, the MIC P. aeruginosa (ATCC 10145) in test [1] was 25 µg/mL. Moreover, the “Broad-spectrum activity S. pneumoniae (ATCC 49619)” value in test [2] worked out at 50. Moreover, the MIC A. baumannii (ATCC BAA-1605) in [3] was 12.5 µg/mL. This substance showed an MIC E. coli (ATCC BAA-2452) in the test with E. coli (ATCC BAA-2452) of 25 µg/mL. The substance further showed an MIC K. pneumonia (ATCC BAA-1705) in test [4] of 25 µg/mL. Moreover, the “MIC S. aureus ATCC 29213” value in the test on S. aureus ATCC 29213 turned out to be 3.1 µg/mL. For the same substance, in [5], the “Broad-spectrum activity E. faecalis (ATCC 51575)” value was 12.5. For the same substance, the “MIC E. coli ATCC 25922” value in test [6] came to 12.5 µg/mL. The “Broad-spectrum activity S. pneumoniae (ATCC 51938)” value in test [7] worked out at 25. In addition, the “MIC MRSA ATCC BAA-1556” value in test [8] was 1.5 µg/mL. The “Broad-spectrum activity B. cereus (ATCC-13061)” value with B. cereus (ATCC-13061) amounted to 3.1. Besides, the “Broad-spectrum activity B. subtilis (ATCC-6633)” value in the test on B. subtilis (ATCC-6633) came out at 1.5. This substance had an MIC K. pneumonia (ATCC 13883) in test [9] of 50 µg/mL. Further, the “Broad-spectrum activity E. faecium (ATCC 700221)” value in test [10] is 6.2. The “MIC P. aeruginosa ATCC 27883” value in test [11] worked out at 12.5 µg/mL. In addition, the “Broad-spectrum activity E. faecalis (ATCC 29212)” value in test [12] stood at 6.2. The MIC P. aeruginosa (ATCC BAA-1744) in test [13] turned out to be 25 µg/mL. Also, the “Broad-spectrum activity E. faecium (ATCC 27270)” value in test [14] was found to be 3.1.
Regarding “c[Arg-Arg-Arg-Arg-Dip-Dip-dip] [IFX-060]”, in test [1], the MIC P. aeruginosa (ATCC 10145) is 25 µg/mL. The “Broad-spectrum activity S. pneumoniae (ATCC 49619)” value in test [2] was found to be 25. This substance also came in with an MIC A. baumannii (ATCC BAA-1605) in test [3] of 6.2 µg/mL. In the test on E. coli (ATCC BAA-2452), this substance had an MIC E. coli (ATCC BAA-2452) of 12.5 µg/mL. In addition, the MIC K. pneumonia (ATCC BAA-1705) in [4] stood at 12.5 µg/mL. For the same substance, the “MIC S. aureus ATCC 29213” value in the test on S. aureus ATCC 29213 turned out to be 1.5 µg/mL. Further, the “Broad-spectrum activity E. faecalis (ATCC 51575)” value in [5] was 12.5. Moreover, the “MIC E. coli ATCC 25922” value in [6] came out at 6.2 µg/mL. In test [7], the “Broad-spectrum activity S. pneumoniae (ATCC 51938)” value was determined as 12.5. Also, the “MIC MRSA ATCC BAA-1556” value in [8] was determined as 1.5 µg/mL. Moreover, the “Broad-spectrum activity B. cereus (ATCC-13061)” value in the test on B. cereus (ATCC-13061) stood at 3.1. Moreover, the “Broad-spectrum activity B. subtilis (ATCC-6633)” value with B. subtilis (ATCC-6633) came to 1.5. Besides, the MIC K. pneumonia (ATCC 13883) in test [9] is 50 µg/mL. Moreover, the “Broad-spectrum activity E. faecium (ATCC 700221)” value in test [10] turned out to be 1.5. The “MIC P. aeruginosa ATCC 27883” value in [11] came to 12.5 µg/mL. Besides, in test [12], the “Broad-spectrum activity E. faecalis (ATCC 29212)” value was found to be 3.1. In test [13], the MIC P. aeruginosa (ATCC BAA-1744) is 12.5 µg/mL. In addition, the “Broad-spectrum activity E. faecium (ATCC 27270)” value in test [14] is given as 3.1.
Substance “c[Arg-Arg-arg-Arg-Dip-Trp-Dip] [IFX-092]” showed an MIC P. aeruginosa (ATCC 10145) in test [1] of 25 µg/mL. In addition, in test [2], the “Broad-spectrum activity S. pneumoniae (ATCC 49619)” value came to 50. Further, in [3], the MIC A. baumannii (ATCC BAA-1605) came out at 12.5 µg/mL. In the test on E. coli (ATCC BAA-2452), this substance registered an MIC E. coli (ATCC BAA-2452) of 12.5 µg/mL. Also, in test [4], the MIC K. pneumonia (ATCC BAA-1705) was 25 µg/mL. Further, in the test with S. aureus ATCC 29213, the “MIC S. aureus ATCC 29213” value came to 3.1 µg/mL. For the same substance, in test [5], the “Broad-spectrum activity E. faecalis (ATCC 51575)” value is 12.5. For the same substance, in test [6], the “MIC E. coli ATCC 25922” value amounted to 25 µg/mL. For the same substance, the “Broad-spectrum activity S. pneumoniae (ATCC 51938)” value in [7] amounted to 25. Moreover, the “MIC MRSA ATCC BAA-1556” value in [8] amounted to 3.1 µg/mL. Besides, in the test with B. cereus (ATCC-13061), the “Broad-spectrum activity B. cereus (ATCC-13061)” value is 6.2. Besides, the “Broad-spectrum activity B. subtilis (ATCC-6633)” value in the test with B. subtilis (ATCC-6633) amounted to 1.5. The MIC K. pneumonia (ATCC 13883) in test [9] is 50 µg/mL. Besides, the “Broad-spectrum activity E. faecium (ATCC 700221)” value in test [10] is recorded as 12.5. Moreover, the “MIC P. aeruginosa ATCC 27883” value in test [11] was found to be 12.5 µg/mL. Besides, the “Broad-spectrum activity E. faecalis (ATCC 29212)” value in [12] came to 12.5. In addition, the MIC P. aeruginosa (ATCC BAA-1744) in [13] stood at 25 µg/mL. Besides, the “Broad-spectrum activity E. faecium (ATCC 27270)” value in [14] worked out at 6.2.
